# Laboratory results from ChEMBL document CHEMBL1201862, “PubChem BioAssay data set” (2004).
# Calls of active or inactive are those of the source.
# Experiments:
# Cytochrome P450 2D6 = Cytochrome P450 2D6 (Homo sapiens, UniProt P10635);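 also: CYP2D6 member of a cytochrome P450 panel assay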
# Cytochrome P450 3A4 = Cytochrome P450 3A4 (Homo sapiens, UniProt P08684);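 also: CYP3A4 tested as one member of a cytochrome P450 panel screen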
# Cytochrome P450 2C9 = Cytochrome P450 2C9 (Homo sapiens, UniProt P11712)
# [1] = inhibitors of intracellular T. cruzi replication, confirmation, NIH3T3 host cells, beta-gal luminescence (AID 2044); assay type: functional, cell-based;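 also: intracellular parasites grown in NIH/3T3 mouse fibroblasts as host cells; luminescent beta-galactosidase reporter signal from transgenic T. cruzi replicating inside host cells; inhibitors lower the luminescence signal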
# [2] = cytotoxicity toward NIH3T3 fibroblasts, dose response, counter-screen, cell-based, ATP luminescence, mouse fibroblasts (AID 2010); assay type: functional;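 also: cells exposed to compound for about 90 hours before reading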
# Cytochrome P450 2C19 = Cytochrome P450 2C19 (Homo sapiens, UniProt P33261); test: Cytochrome panel assay with activity outcomes. Panel member name: p450-cyp2c19 Compounds with AC50 equal or less than 10 uM are considered active; assay type: functional
# Protein RecA = biological target: T1, Protein RecA (Mycobacterium tuberculosis, UniProt P9WHJ3); test: Fluorescence Cell-Free Homogeneous Dose Retest to Identify Inhibitors of RecA-Intein Splicing Activity. [Related pubchem assays (depositor defined):AID2097, AID2223, AID489010, AID492950]; assay type: functional
# T1 sequence (P9WHJ3 whole entry): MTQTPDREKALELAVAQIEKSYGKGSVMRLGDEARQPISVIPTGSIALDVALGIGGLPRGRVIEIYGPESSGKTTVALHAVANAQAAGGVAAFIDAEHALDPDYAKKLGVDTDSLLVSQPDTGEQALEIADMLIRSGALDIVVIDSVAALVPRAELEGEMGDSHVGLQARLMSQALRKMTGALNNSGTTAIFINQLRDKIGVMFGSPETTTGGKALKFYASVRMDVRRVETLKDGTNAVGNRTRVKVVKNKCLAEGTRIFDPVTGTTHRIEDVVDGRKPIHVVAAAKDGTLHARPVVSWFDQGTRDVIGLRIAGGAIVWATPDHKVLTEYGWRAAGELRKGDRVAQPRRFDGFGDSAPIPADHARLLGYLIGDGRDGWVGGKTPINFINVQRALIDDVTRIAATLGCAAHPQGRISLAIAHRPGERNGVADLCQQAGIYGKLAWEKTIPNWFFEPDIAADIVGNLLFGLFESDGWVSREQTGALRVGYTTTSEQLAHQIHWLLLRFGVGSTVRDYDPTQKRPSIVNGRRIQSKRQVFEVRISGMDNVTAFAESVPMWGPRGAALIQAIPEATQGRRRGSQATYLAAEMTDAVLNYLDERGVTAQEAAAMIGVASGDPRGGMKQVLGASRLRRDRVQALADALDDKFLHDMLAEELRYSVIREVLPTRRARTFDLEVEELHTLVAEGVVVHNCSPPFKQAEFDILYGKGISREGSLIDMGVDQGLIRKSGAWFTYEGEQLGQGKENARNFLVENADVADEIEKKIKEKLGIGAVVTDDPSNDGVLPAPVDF
# Sequence of Cytochrome P450 3A4 (P08684 whole entry): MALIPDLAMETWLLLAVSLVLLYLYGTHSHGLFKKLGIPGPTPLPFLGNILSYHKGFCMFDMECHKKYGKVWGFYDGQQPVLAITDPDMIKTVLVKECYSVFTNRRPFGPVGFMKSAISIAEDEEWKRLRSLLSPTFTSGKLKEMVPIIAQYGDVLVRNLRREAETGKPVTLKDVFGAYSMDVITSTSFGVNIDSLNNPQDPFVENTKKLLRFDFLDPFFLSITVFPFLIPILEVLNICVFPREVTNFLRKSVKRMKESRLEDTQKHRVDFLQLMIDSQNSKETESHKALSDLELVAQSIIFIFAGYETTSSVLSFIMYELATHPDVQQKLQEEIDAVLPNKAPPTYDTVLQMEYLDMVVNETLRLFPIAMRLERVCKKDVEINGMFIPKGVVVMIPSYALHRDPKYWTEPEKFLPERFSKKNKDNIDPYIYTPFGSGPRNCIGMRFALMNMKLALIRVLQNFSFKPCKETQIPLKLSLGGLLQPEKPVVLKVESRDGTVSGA
# Sequence of Cytochrome P450 2D6 (P10635 whole entry): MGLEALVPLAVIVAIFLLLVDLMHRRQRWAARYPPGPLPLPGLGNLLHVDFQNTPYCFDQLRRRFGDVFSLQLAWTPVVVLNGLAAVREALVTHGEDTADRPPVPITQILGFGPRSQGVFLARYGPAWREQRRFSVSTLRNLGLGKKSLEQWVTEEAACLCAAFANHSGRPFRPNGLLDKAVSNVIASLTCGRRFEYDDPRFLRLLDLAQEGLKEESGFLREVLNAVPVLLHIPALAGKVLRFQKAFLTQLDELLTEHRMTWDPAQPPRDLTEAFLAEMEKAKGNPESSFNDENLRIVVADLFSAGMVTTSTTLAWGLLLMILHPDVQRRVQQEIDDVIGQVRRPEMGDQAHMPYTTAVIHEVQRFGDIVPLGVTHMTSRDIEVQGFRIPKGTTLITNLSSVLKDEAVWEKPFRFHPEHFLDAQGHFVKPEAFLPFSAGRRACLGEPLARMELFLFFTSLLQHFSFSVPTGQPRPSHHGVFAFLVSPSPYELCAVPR
# Sequence of Cytochrome P450 2C19 (P33261 whole entry): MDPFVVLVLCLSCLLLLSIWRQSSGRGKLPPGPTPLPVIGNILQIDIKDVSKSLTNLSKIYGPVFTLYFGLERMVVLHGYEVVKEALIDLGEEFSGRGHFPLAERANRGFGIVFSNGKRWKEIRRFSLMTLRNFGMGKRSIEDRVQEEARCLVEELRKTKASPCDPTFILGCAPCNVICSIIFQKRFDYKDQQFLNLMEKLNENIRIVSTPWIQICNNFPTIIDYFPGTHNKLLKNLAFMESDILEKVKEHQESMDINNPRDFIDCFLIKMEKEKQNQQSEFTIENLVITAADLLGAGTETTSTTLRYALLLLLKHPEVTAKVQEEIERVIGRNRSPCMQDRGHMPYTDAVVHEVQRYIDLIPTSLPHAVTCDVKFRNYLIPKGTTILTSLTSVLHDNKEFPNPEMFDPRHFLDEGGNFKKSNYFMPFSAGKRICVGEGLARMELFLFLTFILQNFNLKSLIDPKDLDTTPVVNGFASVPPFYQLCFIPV
# Sequence of Cytochrome P450 2C9 (P11712 whole entry): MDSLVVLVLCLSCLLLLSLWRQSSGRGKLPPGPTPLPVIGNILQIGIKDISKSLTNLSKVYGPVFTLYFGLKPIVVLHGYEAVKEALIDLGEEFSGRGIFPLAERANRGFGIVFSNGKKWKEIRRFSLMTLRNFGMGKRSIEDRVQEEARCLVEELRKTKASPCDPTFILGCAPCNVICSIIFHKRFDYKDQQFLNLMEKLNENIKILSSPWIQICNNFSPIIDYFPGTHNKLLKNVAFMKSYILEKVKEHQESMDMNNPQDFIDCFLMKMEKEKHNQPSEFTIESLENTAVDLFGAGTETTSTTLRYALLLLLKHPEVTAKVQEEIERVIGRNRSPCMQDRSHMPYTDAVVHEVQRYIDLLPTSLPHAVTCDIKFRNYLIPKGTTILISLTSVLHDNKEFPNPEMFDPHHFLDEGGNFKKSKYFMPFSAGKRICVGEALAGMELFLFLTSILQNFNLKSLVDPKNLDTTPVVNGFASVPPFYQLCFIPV
structure (smiles),measurement,setting,value
COC(=O)[C@@H]1CC[C@H](C)[C@@H](c2ccc(C)cc2)N1C(=O)c1ccc(/C=N\O[C@@H](C)CN2CCCc3nc(C)c(C)cc32)cc1,AC50,Cytochrome P450 2D6,6.31 µM (inconclusive)
same,AC50,Cytochrome P450 3A4,3.98 µM (inconclusive)
same,AC50,Cytochrome P450 2C9,3.16 µM (inconclusive)
COc1ccc(N2CCN(C(CNC(=O)C(=O)NCCCn3ccnc3)c3cccnc3)CC2)cc1 (stereo not given),EC50,[1],< 0.1 µM (active)
same,EC50,[2],10.4 µM (active)
Nc1n[nH]c2ccccc12,AC50,Cytochrome P450 3A4,3.98 µM (inconclusive)
O=C(N[C@@]1(C(=O)O)C[C@@H]1c1ccccc1)c1ccccc1,AC50,Cytochrome P450 2C19,inconclusive
Cn1c(=O)cnc2cnc(Oc3ccccc3)nc21,AC50,Cytochrome P450 2C19; read-out: AC50,39.8 µM (inconclusive)
Cc1nc(C(=O)Nc2ccc(Cl)cc2)sc1C1(C)CC(c2cccc([N+](=O)[O-])c2)=NO1 (stereo not given),EC50,[1],0.545 µM (active)
same,EC50,[2],> 60 µM (not active)
O=[N+]([O-])c1ccc(C2=Nn3c(nnc3-c3ccc(Cl)cc3)SC2)o1,AC50,Cytochrome P450 2D6,5.01 µM (inconclusive)
same,AC50,Cytochrome P450 2C9,7.94 µM (inconclusive)
CCN1CCCC1CNC(=O)c1ccc(Sc2ccc(F)cc2)c([N+](=O)[O-])c1 (stereo not given),EC50,[1],0.879 µM (active)
same,EC50,[2],> 60 µM (inconclusive)
CCCOc1ccc(C(=O)NC(=S)Nc2nc3ccc(C)cc3s2)cc1,AC50,Cytochrome P450 2C19; read-out: AC50,15.8 µM (inconclusive)
Cc1nc(-c2cccnc2)sc1C(N)=O,AC50,Cytochrome P450 2C19; read-out: AC50,5.01 µM (inconclusive)
same,AC50,Cytochrome P450 3A4,28.2 µM (inconclusive)
Cc1nn(Cc2ccc(C(=O)Nc3ccc(C(=O)OC(C)C)cc3)o2)c(C)c1Cl,EC50,[1],2.86 µM (active)
same,EC50,[2],> 60 µM (not active)
Cc1ccccc1C(=O)N1CCc2ccccc2C1,AC50,Cytochrome P450 3A4,6.31 µM (inconclusive)
same,AC50,Cytochrome P450 2C9,5.62 µM (inconclusive)
c1ccc(Nc2cccc(Nc3ccccc3)c2)cc1,EC50,[1],0.937 µM (active)
same,EC50,[2],> 60 µM (not active)
COCCn1c(=O)c(-c2ccccc2)nc2cnc(OC)nc21,AC50,Cytochrome P450 3A4,25.1 µM (inconclusive)
same,AC50,Cytochrome P450 2C9,20 µM (inconclusive)
N#C/C(=C(/O)CN1CCCCC1)c1nc(-c2ccc(Cl)cc2)cs1,AC50,Cytochrome P450 2C19; read-out: AC50,10 µM (inconclusive)
same,AC50,Cytochrome P450 3A4,10 µM (inconclusive)
COC(=O)[C@@]1(Cc2ccccc2)[C@H]2c3cc(C(=O)N(C)C)n(Cc4ccc(O)c(OC)c4)c3C[C@H]2CN1C(=O)c1ccccc1,AC50,Cytochrome P450 2D6,31.6 µM (inconclusive)
Cc1c(CCC(C)C)c(-n2ccnc2C)n2c(nc3ccccc32)c1C#N,AC50,Cytochrome P450 3A4,14.1 µM (inconclusive)
same,AC50,Cytochrome P450 2C9,3.98 µM (inconclusive)
N#Cc1c(Cl)cccc1-n1ccnc1,AC50,Cytochrome P450 2D6,7.08 µM (inconclusive)
same,AC50,Cytochrome P450 2C9,2.82 µM (inconclusive)
N#Cc1ccc(CN2CCCC3(CCNCC3)C2)cc1,AC50,Cytochrome P450 2D6,20 µM (inconclusive)
C=CCSc1ncccc1C(=O)NCc1ccc(C)cc1,AC50,Cytochrome P450 2C9,12.6 µM (inconclusive)
CCCC1(C(=O)OC)C=C2C(=C(c3ccccc3)C(=O)C2C)CN1 (stereo not given),AC50,Cytochrome P450 3A4,10 µM (inconclusive)
CC#CCOC(=O)c1c(C)nc2sc3c(c2c1N)CC[C@@H](O)C3,AC50,Cytochrome P450 2D6,31.6 µM (inconclusive)
same,AC50,Cytochrome P450 2C9,15.8 µM (inconclusive)
O=C1CCC[C@@H]2Cc3[nH]c4c(Cl)ccc(Cl)c4c3[C@@H]3CCN1[C@H]23,EC50,[1],1.33 µM (active)
same,EC50,[2],> 60 µM (not active)
O=C(CCN1CCCCC1)N1CCc2c([nH]c3ccccc23)[C@H]1c1cccnc1,AC50,Cytochrome P450 2C19,inconclusive
same,AC50,Cytochrome P450 2D6,3.16 µM (inconclusive)
O=c1c(-c2ccc(Cl)cc2)nc2cnc(N3CCNCC3)nc2n1-c1ccccc1,AC50,Cytochrome P450 3A4,12.6 µM (inconclusive)
same,AC50,Cytochrome P450 2C9,15.8 µM (inconclusive)
CCCCCC(=O)Nc1cc(S(=O)(=O)N2CCOCC2)ccc1N1CCN(C)CC1,EC50,[1],0.813 µM (active)
same,EC50,[2],> 60 µM (not active)
COc1ccc(-c2nc3cnc(N4CCN(C)CC4)nc3n(Cc3cccs3)c2=O)cc1,AC50,Cytochrome P450 2C19,inconclusive
O=C1C2CCC(C(O)C2)N1Cc1ccccc1 (stereo not given),AC50,Cytochrome P450 3A4,17.8 µM (inconclusive)
CCCc1n[nH]c2c1C(c1ccc(OCCN3CCOCC3)c(OCC)c1)C(C#N)=C(N)O2 (stereo not given),EC50,Protein RecA,10 µM (active)
Cc1ccc(-n2c(C)cc(C(=S)N3CCOCC3)c2C)cc1C,AC50,Cytochrome P450 2D6,22.4 µM (inconclusive)
same,AC50,Cytochrome P450 3A4,31.6 µM (inconclusive)
CSc1ccccc1NC(=O)c1cc(-c2cccnc2)nc2ccc(Br)cc12,EC50,[1],2 µM (active)
same,EC50,[2],> 60 µM (not active)
O=C(O)C(=O)Cc1ccc2c(c1)OCO2,AC50,Cytochrome P450 2C19,inconclusive
Cc1onc(-c2ccccc2Cl)c1C(=O)NCC(=O)O,AC50,Cytochrome P450 2C19; read-out: AC50,39.8 µM (inconclusive)
COC(=O)c1scc(C)c1NC(=O)Cc1ccccc1,AC50,Cytochrome P450 3A4,22.4 µM (inconclusive)
COc1ncc2nc(C)c(=O)n(-c3ccccc3)c2n1,AC50,Cytochrome P450 2C19; read-out: AC50,39.8 µM (inconclusive)
same,AC50,Cytochrome P450 3A4,25.1 µM (inconclusive)
CCC(C)N1C(=O)C2C(C(=O)Nc3cccc(OC)c3)C3C=CC2(O3)C1C(=O)NC1CCCCC1C (stereo not given),AC50,Cytochrome P450 2C19; read-out: AC50,28.2 µM (inconclusive)
same,AC50,Cytochrome P450 2D6,7.08 µM (inconclusive)
same,AC50,Cytochrome P450 2C9,12.6 µM (inconclusive)
COCCn1c(=O)cnc2cnc(Oc3cccc(Cl)c3)nc21,AC50,Cytochrome P450 3A4,31.6 µM (inconclusive)
O=C(O)/C=C\c1c[nH]cn1 [CIS-UROCANIC ACID],AC50,Cytochrome P450 3A4,0.251 µM (inconclusive)
CN(C)c1ncnc2ccc(-c3ccccc3C#N)cc12,AC50,Cytochrome P450 3A4,1.58 µM (inconclusive)
Cn1c(=O)c(-c2cccc(F)c2)nc2cncnc21,AC50,Cytochrome P450 3A4,20 µM (inconclusive)
Cc1cc2c(cc1C)NC1=C(O)[C@@H](c3c[nH]c4ccc(COc5ccccc5)cc34)OC1=N2,AC50,Cytochrome P450 2C9,7.94 µM (inconclusive)
O=C(CN1CCCC1)N/N=C/c1ccc(-c2cccc(Cl)c2)o1,AC50,Cytochrome P450 2C9,15.8 µM (inconclusive)
O=c1c2ccccc2c(-c2ccc(Br)cc2)nn1Cc1ccccc1,AC50,Cytochrome P450 2C19; read-out: AC50,5.62 µM (inconclusive)
same,AC50,Cytochrome P450 3A4,25.1 µM (inconclusive)
same,AC50,Cytochrome P450 2C9,3.55 µM (inconclusive)
Clc1ccc(NC2=NCCCS2)cc1Cl,EC50,[1],1.8 µM (active)
same,EC50,[2],> 60 µM (not active)
CCCC/C=C/C(NC(=O)c1ccco1)c1ccccc1 (stereo not given),AC50,Cytochrome P450 2D6,39.8 µM (inconclusive)
O=C(/C=C/c1cn(-c2ccccc2)nc1-c1cccc(Cl)c1)N1CCN(c2ccccn2)CC1,EC50,[1],1.72 µM (active)
same,EC50,[2],> 60 µM (not active)
O=C(CSc1nc2ccccc2c2ccccc12)c1ccccc1,AC50,Cytochrome P450 2C19; read-out: AC50,6.31 µM (inconclusive)
same,AC50,Cytochrome P450 3A4,3.98 µM (inconclusive)
CN1CCN(c2ccccc2NC(=O)c2ccc(-c3ccc(Br)cc3)o2)CC1,EC50,[1],2.18 µM (active)
same,EC50,[2],4.08 µM (active)
COc1ccc(C(=O)N2CCC3(CC2)CN(c2ccncc2)C3)cc1,AC50,Cytochrome P450 2D6,25.1 µM (inconclusive)
same,AC50,Cytochrome P450 3A4,15.8 µM (inconclusive)
same,AC50,Cytochrome P450 2C9,39.8 µM (inconclusive)
CCN1CCN(C(c2ccccn2)c2c(NC(=O)c3ccccc3)sc(C)c2C)CC1 (stereo not given),AC50,Cytochrome P450 2C19; read-out: AC50,17.8 µM (inconclusive)
COc1ccc(-c2cn3c([n+]2-c2ccccc2)SCC3)cc1,EC50,[1],1.3 µM (active)
same,EC50,[2],> 60 µM (not active)
CCc1cc2c(nc1CC)CCN(CC/C(C)=N/OCC[C@@H]1C=C[C@H](OC(C)=O)[C@H](COC(C)=O)O1)C2,AC50,Cytochrome P450 3A4,3.16 µM (inconclusive)
O=C(N/N=C/c1ccc(Cl)cc1Cl)c1cccc(F)c1,AC50,Cytochrome P450 2D6,8.91 µM (inconclusive)
same,AC50,Cytochrome P450 3A4,31.6 µM (inconclusive)
CC(C(=O)N1CCc2ccccc21)N1CCN(Cc2ccccc2)CC1 (stereo not given),EC50,[1],0.793 µM (active)
same,EC50,[2],> 60 µM (not active)
C#CCCCO/N=C1/C[C@@H](O)[C@@H](O)[C@@H]2[C@@H]3C(=O)N(C[C@@H]4CCCO4)C(=O)[C@H]3CC[C@H]12,AC50,Cytochrome P450 3A4,6.31 µM (inconclusive)
COc1ccc(C(=O)c2ccc([N+](=O)[O-])cc2Cl)cc1,EC50,[1],2.15 µM (active)
same,EC50,[2],> 30 µM (not active)
Cc1cccc(NC(=O)Nc2ccncc2)c1,EC50,[1],0.781 µM (active)
same,EC50,[2],> 60 µM (not active)
O=C1Nc2ccccc2C(O)(C(=O)NCc2ccc3c(c2)OCO3)N1c1ccc(Cl)c(Cl)c1 (stereo not given),AC50,Cytochrome P450 2D6,1.12 µM (inconclusive)
